# Laboratory results reported in PMC10350922, “Allosteric Inhibitors of Macrophage Migration Inhibitory Factor (MIF) Interfere with Apoptosis-Inducing Factor (AIF) Co-Localization to Prevent Parthanatos” (Journal of Medicinal Chemistry, 2023).
# Biological target: MIF
# Test: not given
# Parameters: method as in PMID 32940040
# Conditions: competitive MIF tautomerase inhibitor; cited from earlier work
row,Compound,Ki
1,"COc1ccc(N2Cc3ccc(O)cc3OC2=O)cc1OC [ZP143, reference compound]",100 ± 10 nM

# Biological target: T1, MIF (Homo sapiens, UniProt P14174)
# T1 construct: made in house; host or cells: Escherichia coli BL21, pET-20b(p) plasmid
# T1 sequence (P14174 2-115 limits assumed): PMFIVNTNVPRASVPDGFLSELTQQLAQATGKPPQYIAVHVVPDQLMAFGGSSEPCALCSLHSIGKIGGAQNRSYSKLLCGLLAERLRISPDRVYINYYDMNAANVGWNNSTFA
# Test: MIF tautomerase activity assay (PP substrate, UV absorbance at 300 nm)
# Format: biochemical
# Conditions: 10 μM inhibitor; activity without inhibitor set to 100%; mean, n = 3
# Method: Recombinant human MIF with a C-terminal His-tag was expressed and purified following methods published previously.[47] The inhibitory potency for MIF tautomerase activity of the 1-phenyl-1H-1,2,3-triazole-4-carboxamides was measured after pre-incubation with MIF. The MIF-catalyzed PP tautomerization was measured by the corresponding change in UV absorbance over the first 3 min of the reaction.[48] Initial screening of the inhibitory potency was performed at 10 μM inhibitor concentration.
# Inhibition of the tautomerase activity and kinetics of MIF was measured using […] (PP) as a substrate. A stock solution was prepared by mixing PP in 50 mM ammonium acetate buffer and adjusted to pH 6.0 using 1.0 M NaOH to provide a concentration of 20 mM. This solution was incubated overnight at 37 °C to allow equilibration of the keto and enol forms and then stored at 4 °C. For the assay, MIF stock solution (10 μL, 70 μM) was diluted in 20 mL of the boric acid buffer (435 mM H3BO3, 1 mM EDTA, pH 6.2) to provide 35 nM solution. The enzyme activity was determined by premixing 192 μL of the MIF dilution with 8 μL of the inhibitors dissolved in DMSO (1 mM). This mixture was preincubated for 10 min. Next, 50 μL of the mixture was mixed with 50 μL of 2 mM PP solution in ammonium acetate buffer. Subsequently, MIF tautomerase activity was monitored by the formation of the borate–enol complex, which was measured by the increase in UV absorbance at 300 nm. The increase in UV absorbance was measured over the first 10 min of incubation using a BioTek Synergy H1 Hybrid plate reader. MIF tautomerase activity in the presence of blank DMSO was set to 100% enzyme activity. […] Data from the first 3 min were used to calculate the initial velocities. All of the graphs were prepared in GraphPad Prism.
# For the IC50 measurements, 1 mM solutions of the compounds were double-diluted 10 times in DMSO and subsequently, the MIF tautomerase activity was determined by premixing 190 μL of the MIF dilution with 10 μL of the inhibitors. This mixture was preincubated for 10 min and mixed with the 2 mM PP solution as described above.
Compound,remaining activity at 10 µM,Activity of MIF (%)
"O=C(Nc1ccccc1)c1cn(-c2ccccc2)nn1 [Compound 6a, N,1-Diphenyl-1H-1,2,3-triazole-4-carboxamide]",84%,
"O=C(Nc1ccc(F)cc1)c1cn(-c2ccccc2)nn1 [Compound 6b, N-(4-Fluorophenyl)-1-phenyl-1H-1,2,3-triazole-4-carboxamide]",65%,
"O=C(Nc1ccc(Br)cc1)c1cn(-c2ccccc2)nn1 [Compound 6c, N-(4-Bromophenyl)-1-phenyl-1H-1,2,3-triazole-4-carboxamide]",37%,
"COc1ccccc1-n1cc(C(=O)Nc2ccc(Cl)cc2)nn1 [Compound 6d, N-(4-Chlorophenyl)-1-(2-methoxyphenyl)-1H-1,2,3-triazole-4-carboxamide]",87%,
"COc1ccccc1-n1cc(C(=O)NC(C)c2ccc(Br)cc2)nn1 (centres unmarked) [Compound 6e, N-(1-(4-Bromophenyl)ethyl)-1-(2-methoxyphenyl)-1H-1,2,3-triazole-4-carboxamide]",79%,
"CCc1ccc(-n2cc(C(=O)Nc3cccc(F)c3)nn2)cc1 [Compound 6f, 1-(4-Ethylphenyl)-N-(3-fluorophenyl)-1H-1,2,3-triazole-4-carboxamide]",50%,
"Cc1ccc(-n2cc(C(=O)Nc3ccc(F)cc3)nn2)cc1C [Compound 6g, 1-(3,4-Dimethylphenyl)-N-(4-fluorophenyl)-1H-1,2,3-triazole-4-carboxamide]",54%,
"O=C(NCCc1ccccc1Cl)c1cn(-c2ccc(Cl)c(Cl)c2)nn1 [Compound 6h, N-(2-Chlorophenethyl)-1-(3,4-dichlorophenyl)-1H-1,2,3-triazole-4-carboxamide]",65%,
O=C(CCc1ccco1)NCc1cn(-c2ccc(Cl)c(Cl)c2)nn1 [Compound 6i],90%,
"COC(=O)C(Cc1ccccc1)NC(=O)c1cn(-c2ccc(Cl)c(Cl)c2)nn1 (centres unmarked) [Compound 6j, Methyl-(1-(3,4-dichlorophenyl)-1H-1,2,3-triazole-4-carbonyl)phenylalaninate]",58%,
"O=C(NC1CCCC1)c1cn(-c2ccc(Cl)c(Cl)c2)nn1 [Compound 6k, N-Cyclopentyl-1-(3,4-dichlorophenyl)-1H-1,2,3-triazole-4-carboxamide]",50%,
"O=C(NCc1ccco1)c1cn(-c2ccc(Cl)c(Cl)c2)nn1 [Compound 6l, 1-(3,4-Dichlorophenyl)-N-(furan-2-ylmethyl)-1H-1,2,3-triazole-4-carboxamide]",38%,
"COc1ccc(CNC(=O)c2cn(-c3ccc(Cl)c(Cl)c3)nn2)cc1OC [Compound 6m, 1-(3,4-Dichlorophenyl)-N-(3,4-dimethoxybenzyl)-1H-1,2,3-triazole-4-carboxamide]",80%,
"N#Cc1cc(Cl)ccc1-n1cc(C(=O)Nc2ccc(F)cc2)nn1 [Compound 6n, 1-(4-Chloro-2-cyanophenyl)-N-(4-fluorophenyl)-1H-1,2,3-triazole-4-carboxamide]",47%,
"CCc1ccc(NC(=O)c2cn(-c3ccc(F)cc3[N+](=O)[O-])nn2)cc1 [Compound 6p, N-(4-Ethylphenyl)-1-(4-fluoro-2-nitrophenyl)-1H-1,2,3-triazole-4-carboxamide]",45%,
"O=C(NCc1ccc(Cl)cc1)c1cn(-c2ccc(F)cc2)nn1 [Compound 6q, N-(4-Chlorobenzyl)-1-(4-fluorophenyl)-1H-1,2,3-triazole-4-carboxamide]",58%,
"O=C(NCc1ccc(Cl)cc1)c1cn(-c2ccc(Cl)cc2)nn1 [Compound 6r, N-(4-Chlorobenzyl)-1-4-chlorophenyl-1H-1,2,3-triazole-4-carboxamide]",57%,
"O=C(NCCc1ccccc1)c1cn(-c2cccc(Cl)c2)nn1 [Compound 6s, 1-(3-Chlorophenyl)-N-phenethyl-1H-1,2,3-triazole-4-carboxamide]",40%,
"O=C(NCCc1ccccc1Cl)c1cn(-c2cccc(Cl)c2)nn1 [Compound 6t, N-(2-Chlorophenethyl)-1-(3-chlorophenyl)-1H-1,2,3-triazole-4-carboxamide]",66%,
"O=C(NCCc1ccccc1)c1cn(-c2cccc3ncccc23)nn1 [Compound 6u, N-Phenethyl-1-(quinolin-5-yl)-1H-1,2,3-triazole-4-carboxamide]",66%,
"Cc1ccc(-n2cc(C(=O)NCc3ccccc3)nn2)cc1C [Compound 6v, N-Benzyl-1-(3,4-dimethylphenyl)-1H-1,2,3-triazole-4-carboxamide]",21%,
"CC(NC(=O)c1cn(-c2ccc(C(=O)NC3CC3)cc2)nn1)c1ccccc1 (centres unmarked) [Compound 6w, 1-(4-(Cyclopropylcarbamoyl)phenyl)-N-(1-phenylethyl)-1H-1,2,3-triazole-4-carboxamide]",39%,
"O=C(Nc1ccccc1)c1ccc(-n2cc(C(=O)NCc3ccccc3)nn2)cc1 [Compound 6x, N-Benzyl-1-(4-(phenylcarbomyl)phenyl)-1H-1,2,3-triazole-4-carboxamide]",14%,
"COC(=O)CC1CC(c2ccc(O)cc2)=NO1 (centres unmarked) [ISO-1, reference compound]",60%,
"N-(4-Bromophenyl)-1-(4-cyanophenyl)-1H-1,2,3-triazole-4-carboxamide [Compound 6o]",,44%

# Same assay, conditions: PP as substrate, 10 min preincubation; read-out: IC50, inhibition of MIF tautomerase activity
row,Compound,IC50
1,"Cc1ccc(-n2cc(C(=O)NCc3ccccc3)nn2)cc1C [Compound 6v, N-Benzyl-1-(3,4-dimethylphenyl)-1H-1,2,3-triazole-4-carboxamide]",6500 ± 400 nM
2,"O=C(Nc1ccccc1)c1ccc(-n2cc(C(=O)NCc3ccccc3)nn2)cc1 [Compound 6x, N-Benzyl-1-(4-(phenylcarbomyl)phenyl)-1H-1,2,3-triazole-4-carboxamide]",2500 ± 100 nM

# Tested on: HeLa cells
# Test: Cell viability (MTS) assay, MNNG-induced parthanatos
# Format: cell-based
# Conditions: MTS assay
row,Compound,Protective effect in MNNG-induced parthanatos
1,"COc1ccc(N2Cc3ccc(O)cc3OC2=O)cc1OC [ZP143, reference compound]",no protective effect
